Experimental data published in PubChem BioAssay (NCI).
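48-hour exposure; five concentrations; linearly interpolated endpoints. TGI: total growth inhibition.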

Key:
Experiment in all cases: DTP human tumour cell line panel, 48 h
UACC-257 melanoma = system: UACC-257 melanoma
MALME-3M melanoma = system: MALME-3M melanoma
M19-MEL melanoma = system: M19-MEL melanoma
A549 NSCLC = system: A549 NSCLC
HCC-2998 colon = system: HCC-2998 colon
U251 CNS = system: U251 CNS
SK-MEL-5 melanoma = system: SK-MEL-5 melanoma
786-0 renal = system: 786-0 renal
ACHN renal = system: ACHN renal
COLO 205 colon = system: COLO 205 colon
OVCAR-8 ovarian = system: OVCAR-8 ovarian
UO-31 renal = system: UO-31 renal
HT29 colon = system: HT29 colon
DMS 273 small cell lung = system: DMS 273 small cell lung
A498 renal = system: A498 renal
HOP-18 NSCLC = system: HOP-18 NSCLC
SNB-75 CNS = system: SNB-75 CNS
SNB-19 CNS = system: SNB-19 CNS
SN12C renal = system: SN12C renal
SK-MEL-28 melanoma = system: SK-MEL-28 melanoma
IGROV1 ovarian = system: IGROV1 ovarian
KM20L2 colon = system: KM20L2 colon
OVCAR-4 ovarian = system: OVCAR-4 ovarian
UACC-62 melanoma = system: UACC-62 melanoma
SF-295 CNS = system: SF-295 CNS
SR leukemia = system: SR leukemia
SF-268 CNS = system: SF-268 CNS
OVCAR-5 ovarian = system: OVCAR-5 ovarian
SK-OV-3 ovarian = system: SK-OV-3 ovarian
OVCAR-3 ovarian = system: OVCAR-3 ovarian
KM12 colon = system: KM12 colon
SF-539 CNS = system: SF-539 CNS
XF 498 CNS = system: XF 498 CNS
RXF 393 renal = system: RXF 393 renal
MOLT-4 leukemia = system: MOLT-4 leukemia
LOX IMVI melanoma = system: LOX IMVI melanoma
HOP-62 NSCLC = system: HOP-62 NSCLC
RXF-631 renal = system: RXF-631 renal
HCT-15 colon = system: HCT-15 colon
DMS 114 small cell lung = system: DMS 114 small cell lung
EKVX NSCLC = system: EKVX NSCLC
NCI-H226 lung = system: NCI-H226 lung
NCI-H522 lung = system: NCI-H522 lung
HCT-116 colon = system: HCT-116 colon
DLD-1 colon = system: DLD-1 colon
SW-620 colon = system: SW-620 colon
HOP-92 NSCLC = system: HOP-92 NSCLC
HL-60(TB) leukemia = system: HL-60(TB) leukemia
NCI-H460 lung = system: NCI-H460 lung
NCI-H23 lung = system: NCI-H23 lung
CAKI-1 renal = system: CAKI-1 renal
LXFL 529 NSCLC = system: LXFL 529 NSCLC
SNB-78 CNS = system: SNB-78 CNS
K-562 leukemia = system: K-562 leukemia
M14 melanoma = system: M14 melanoma
TK-10 renal = system: TK-10 renal
RPMI-8226 leukemia = system: RPMI-8226 leukemia
SK-MEL-2 melanoma = system: SK-MEL-2 melanoma
CCRF-CEM leukemia = system: CCRF-CEM leukemia

## Cc1cc(NS(=O)(=O)c2ccc(NC(=O)c3ccc(Cl)c4c(Nc5ccc(S(N)(=O)=O)cc5)c5ccccc5nc34)cc2)no1
UACC-257 melanoma
  TGI: 50.9 µM
MALME-3M melanoma
  TGI: 29.3 µM
M19-MEL melanoma
  TGI: 38.4 µM
A549 NSCLC
  TGI: > 100 µM
HCC-2998 colon
  TGI: 33.2 µM
U251 CNS
  TGI: 27 µM
SK-MEL-5 melanoma
  TGI: 33.9 µM
786-0 renal
  TGI: 34.8 µM
ACHN renal
  TGI: 73.8 µM
COLO 205 colon
  TGI: 34.3 µM
OVCAR-8 ovarian
  TGI: 36.6 µM
UO-31 renal
  TGI: 69.8 µM
HT29 colon
  TGI: 44.7 µM
DMS 273 small cell lung
  TGI: 47.4 µM
A498 renal
  TGI: 49.9 µM
HOP-18 NSCLC
  TGI: 83 µM
SNB-75 CNS
  TGI: 42.6 µM
SNB-19 CNS
  TGI: 30.2 µM
SN12C renal
  TGI: 58.6 µM
SK-MEL-28 melanoma
  TGI: 42.3 µM
IGROV1 ovarian
  TGI: 44.2 µM
KM20L2 colon
  TGI: 56.6 µM
OVCAR-4 ovarian
  TGI: 47 µM
UACC-62 melanoma
  TGI: 25.2 µM
SF-295 CNS
  TGI: 70 µM
SR leukemia
  TGI: 56.9 µM
SF-268 CNS
  TGI: 40.8 µM
OVCAR-5 ovarian
  TGI: 56.7 µM
SK-OV-3 ovarian
  TGI: 59.2 µM
OVCAR-3 ovarian
  TGI: 37.7 µM
KM12 colon
  TGI: 37.8 µM
SF-539 CNS
  TGI: 39.2 µM
XF 498 CNS
  TGI: 36 µM
RXF 393 renal
  TGI: 31.3 µM
MOLT-4 leukemia
  TGI: 56.6 µM
LOX IMVI melanoma
  TGI: 29.7 µM
HOP-62 NSCLC
  TGI: 41.1 µM
RXF-631 renal
  TGI: 50.2 µM
HCT-15 colon
  TGI: > 100 µM
DMS 114 small cell lung
  TGI: 39.7 µM
EKVX NSCLC
  TGI: 89.1 µM
NCI-H226 lung
  TGI: 46 µM
NCI-H522 lung
  TGI: 23.7 µM
HCT-116 colon
  TGI: 30.8 µM
DLD-1 colon
  TGI: 52.4 µM
SW-620 colon
  TGI: 38.9 µM
HOP-92 NSCLC
  TGI: 39.2 µM
HL-60(TB) leukemia
  TGI: 65.6 µM
NCI-H460 lung
  TGI: 83.1 µM
NCI-H23 lung
  TGI: 49.3 µM
CAKI-1 renal
  TGI: 40.5 µM
LXFL 529 NSCLC
  TGI: 31.4 µM
SNB-78 CNS
  TGI: > 100 µM
K-562 leukemia
  TGI: > 100 µM
M14 melanoma
  TGI: 65.7 µM
TK-10 renal
  TGI: 86.2 µM

## COc1cc2c3c(c1OC)-c1ccccc1C(C(O)c1ccccc1)C3N(C)CC2 (configuration not stated)
UACC-257 melanoma
  TGI: 40.6 µM
MALME-3M melanoma
  TGI: 35 µM
M19-MEL melanoma
  TGI: > 100 µM
A549 NSCLC
  TGI: > 100 µM
HCC-2998 colon
  TGI: 33.7 µM
U251 CNS
  TGI: > 100 µM
SK-MEL-5 melanoma
  TGI: 28 µM
786-0 renal
  TGI: > 100 µM
ACHN renal
  TGI: > 100 µM
COLO 205 colon
  TGI: 29.6 µM
OVCAR-8 ovarian
  TGI: > 100 µM
UO-31 renal
  TGI: 68.3 µM
HT29 colon
  TGI: 72 µM
DMS 273 small cell lung
  TGI: 64.6 µM
HOP-18 NSCLC
  TGI: > 100 µM
SNB-75 CNS
  TGI: > 100 µM
SNB-19 CNS
  TGI: > 100 µM
SN12C renal
  TGI: 99.2 µM
SK-MEL-28 melanoma
  TGI: 41.6 µM
IGROV1 ovarian
  TGI: 80.6 µM
KM20L2 colon
  TGI: 48.8 µM
RPMI-8226 leukemia
  TGI: 82.7 µM
UACC-62 melanoma
  TGI: > 100 µM
SF-295 CNS
  TGI: > 100 µM
SR leukemia
  TGI: 47 µM
SF-268 CNS
  TGI: > 100 µM
OVCAR-5 ovarian
  TGI: > 100 µM
SK-OV-3 ovarian
  TGI: > 100 µM
OVCAR-3 ovarian
  TGI: > 100 µM
SK-MEL-2 melanoma
  TGI: 88.2 µM
KM12 colon
  TGI: 72.4 µM
SF-539 CNS
  TGI: 42.3 µM
XF 498 CNS
  TGI: 52.3 µM
RXF 393 renal
  TGI: 29.1 µM
MOLT-4 leukemia
  TGI: 89 µM
LOX IMVI melanoma
  TGI: > 100 µM
HOP-62 NSCLC
  TGI: 71.6 µM
CCRF-CEM leukemia
  TGI: > 100 µM
RXF-631 renal
  TGI: 65.8 µM
HCT-15 colon
  TGI: 76.9 µM
DMS 114 small cell lung
  TGI: 43.9 µM
EKVX NSCLC
  TGI: > 100 µM
NCI-H226 lung
  TGI: 72.8 µM
NCI-H522 lung
  TGI: 35.9 µM
HCT-116 colon
  TGI: 39.2 µM
DLD-1 colon
  TGI: 66.1 µM
SW-620 colon
  TGI: > 100 µM
HOP-92 NSCLC
  TGI: > 100 µM
HL-60(TB) leukemia
  TGI: 43.6 µM
NCI-H460 lung
  TGI: 90 µM
NCI-H23 lung
  TGI: > 100 µM
LXFL 529 NSCLC
  TGI: > 100 µM
SNB-78 CNS
  TGI: > 100 µM
K-562 leukemia
  TGI: 76.4 µM
M14 melanoma
  TGI: 35.6 µM
TK-10 renal
  TGI: > 100 µM
